Patent US20250215013A1, “SUBSTITUTED TRICYCLIC COMPOUNDS AS PARP INHIBITORS AND THE USE THEREOF” (IMPACT THERAPEUTICS (SHANGHAI), INC., priority 2022, published 2025)

Test system: MDA-MB-436 cells
Assay: Growth inhibition assay against BRCA mutant human breast cancer MDA-MB-436 cell line (CCK-8)
Assay type: cell-based
Details: Homo sapiens, MDA-MB-436, […], proliferation of MDA-MB-436 cells, 7 days

IC50 [nM]	SMILES
25.5	CNC(=O)c1ccc(C2CCN(Cc3ccc4c([nH]c(=O)c5c(C)cnn54)c3F)CC2)c(F)n1 [Example 124, 6-fluoro-7-((4-(2-fluoro-6-(methylcarbamoyl)pyridin-3-yl)piperidin-1-yl)methyl)-3-methylpyrazolo[1,5-a]quinoxalin-4(5H)-one]
7.24	CCNC(=O)c1ccc(N2CCN(Cc3ccc4c([nH]c(=O)c5c(C)cnn54)c3F)CC2)c(F)n1 [Example 125, 7-((4-(2-fluoro-6-(ethylcarbamoyl)pyridin-3-yl)piperazin-1-yl)methyl)-6-fluoro-3-methylpyrazolo[1,5-a]quinoxalin-4(5H)-one]
55.3	CNC(=O)c1ncc(N2CCN(Cc3ccc4c([nH]c(=O)c5c(C)cnn54)c3F)CC2)cc1F [Example 127, 7-((4-(5-fluoro-6-(methylcarbamoyl)pyridin-3-yl)piperazin-1-yl)methyl)-6-fluoro-3-methylpyrazolo[1,5-a]quinoxalin-4(5H)-one]
> 100	CNC(=O)c1ccc(N[C@@H]2CCN(Cc3ccc4c([nH]c(=O)c5c(C)cnn54)c3F)C2)cn1 [Example 134, (R)-6-fluoro-3-methyl-7-((3-((6-(methylcarbamoyl)pyridin-3-yl)amino)pyrrolidin-1-yl)methyl)pyrazolo[1,5-a]quinoxalin-4(5H)-one]
> 100	CNC(=O)c1ccc(N[C@@H]2CCN(Cc3ccc4c([nH]c(=O)c5c(C)cnn54)c3F)C2)c(F)n1 [Example 135, (R)-6-fluoro-7-((3-((2-fluoro-6-(methylcarbamoyl)pyridin-3-yl)amino)pyrrolidin-1-yl)methyl)-3-methylpyrazolo[1,5-a]quinoxalin-4(5H)-one]
1.9	CNC(=O)c1ccc(N2CCN(Cc3ccc4c(c3)[nH]c(=O)c3nocc34)CC2)c(F)n1 [Example 144, 7-((4-(2-fluoro-6-(methylcarbamoyl)pyridin-3-yl)piperazin-1-yl)methyl)isoxazolo[3,4-c]quinolin-4(5H)-one]
> 100	CNC(=O)c1ccc(N2CCN(Cc3ccc4c([nH]c(=O)c5cncn54)c3F)CC2)cn1 [Example 145, 7-((4-(6-(methylcarbamoyl)pyridin-3-yl)piperazin-1-yl)methyl)-6-fluoroimidazo[1,5-a]quinoxalin-4(5H)-one]
> 100	CNC(=O)c1ccc(N[C@@H]2CCN(Cc3ccc4c([nH]c(=O)c5occc54)c3F)C2)cn1 [Example 146, (R)-7-((3-((6-(methylcarbamoyl)pyridin-3-yl)amino)pyrrolidin-1-yl)methyl)-6-fluorofuro[2,3-c]quinolin-4(5H)-one]
29.2	CNC(=O)c1ccc(N2CCN(Cc3ccc4c([nH]c(=O)c5occc54)c3F)CC2)cn1 [Example 148, 6-fluoro-7-((4-(6-(methylcarbamoyl)pyridin-3-yl)piperazin-1-yl)methyl)furo[2,3-c]quinolin-4(5H)-one]
74.5	CNC(=O)c1ccc(N2CCN(Cc3ccc4c([nH]c(=O)c5cocc54)c3F)CC2)cn1 [Example 149, 6-fluoro-7-((4-(6-(methylcarbamoyl)pyridin-3-yl)piperazin-1-yl)methyl)furo[3,4-c]quinolin-4(5H)-one]
11.5	CNC(=O)c1ccc(N2CCN(Cc3ccc4c([nH]c(=O)c5ccoc54)c3F)CC2)cn1 [Example 150, 6-fluoro-7-((4-(6-(methylcarbamoyl)pyridin-3-yl)piperazin-1-yl)methyl)furo[3,2-c]quinolin-4(5H)-one]
23.6	CNC(=O)c1ccc(N2CCN(Cc3ccc4c([nH]c(=O)c5c(C)cnn54)c3F)CC2)cn1 [Example 153, 6-fluoro-3-methyl-7-((4-(6-(methylcarbamoyl)pyridin-3-yl)piperazin-1-yl)methyl)pyrazolo[1,5-a]quinoxalin-4(5H)-one]
95.9	CNC(=O)c1ccc(N2CCN(Cc3ccc4c([nH]c(=O)c5c(C)cnn54)c3F)CC2)c(F)c1 [Example 154, 6-fluoro-7-((4-(2-fluoro-4-(methylcarbamoyl)phenyl)piperazin-1-yl)methyl)-3-methylpyrazolo[1,5-a]quinoxalin-4(5H)-one]
66.5	CNC(=O)c1ccc(N2CCN(Cc3ccc4c([nH]c(=O)c5c(C)cnn54)c3F)CC2)c(Cl)c1 [Example 155, 6-fluoro-7-((4-(2-chloro-4-(methylcarbamoyl)phenyl)piperazin-1-yl)methyl)-3-methylpyrazolo[1,5-a]quinoxalin-4(5H)-one]
6.08	Cc1cnn2c1c(=O)[nH]c1c(F)c(CN3CCN(c4ccc(C(=O)N[C@@H]5CCOC5)nc4F)CC3)ccc12 [Example 156, (R)-6-fluoro-7-((4-(2-fluoro-6-((tetrahydrofuran-3-yl)carbamoyl)pyridin-3-yl)piperazin-1-yl)methyl)-3-methylpyrazolo[1,5-a]quinoxalin-4(5H)-one]
42.3	CNc1nccc2cc(N3CCN(Cc4ccc5c([nH]c(=O)c6c(C)cnn65)c4F)CC3)cnc12 [Example 157, 6-fluoro-3-methyl-7-((4-(8-(methylamino)-1,7-naphthyridin-3-yl)piperazin-1-yl)methyl)pyrazolo[1,5-a]quinoxalin-4(5H)-one]
98.2	Cc1cnn2c1c(=O)[nH]c1c(F)c(CN3CCN(c4ccc(-c5ncc[nH]5)nc4)CC3)ccc12 [Example 158, 7-((4-(6-(1H-imidazol-2-yl)pyridin-3-yl)piperazin-1-yl)methyl)-6-fluoro-3-methylpyrazolo[1,5-a]quinoxalin-4(5H)-one]
> 100	CNC(=O)c1ccc(N2CCN(Cc3ccc4c([nH]c(=O)c5c(C)cnn54)c3F)CC2)c(C2CC2)n1 [Example 160, 7-((4-(2-cyclopropyl-6-(methylcarbamoyl)pyridin-3-yl)piperazin-1-yl)methyl)-6-fluoro-3-methylpyrazolo[1,5-a]quinoxalin-4(5H)-one]
> 100	CNC(=O)c1ccc(N2CCN(Cc3ccc4c([nH]c(=O)c5c(C)cnn54)c3F)CC2)cc1F [Example 161, 6-fluoro-7-((4-(3-fluoro-4-(methylcarbamoyl)phenyl)piperazin-1-yl)methyl)-3-methylpyrazolo[1,5-a]quinoxalin-4(5H)-one]
20.1	CNC(=O)c1ccc(N2CCN(Cc3ccc4c([nH]c(=O)c5c(C)cnn54)c3F)CC2)c(C)c1 [Example 162, 6-fluoro-7-((4-(2-methyl-4-(methylcarbamoyl)phenyl)piperazin-1-yl)methyl)-3-methylpyrazolo[1,5-a]quinoxalin-4(5H)-one]
71.3	Cc1cnn2c1c(=O)[nH]c1c(F)c(CN3CCN(c4ccc(C#N)nc4F)CC3)ccc12 [Example 164, 6-fluoro-7-((4-(2-fluoro-6-cyanopyridin-3-yl)piperazin-1-yl)methyl)-3-methylpyrazolo[1,5-a]quinoxalin-4(5H)-one]
20.3	CNC(=O)c1ccc(N2CCN(Cc3cc4[nH]c(=O)c5c(C)cnn5c4cc3F)CC2)c(C)n1 [Example 169, 8-fluoro-7-((4-(2-methyl-6-(methylcarbamoyl)pyridin-3-yl)piperazin-1-yl)methyl)-3-methylpyrazolo[1,5-a]quinoxalin-4(5H)-one]
18.5	CNC(=O)c1ccc(N2CCN(Cc3cc4[nH]c(=O)c5c(C)cnn5c4cc3F)CC2)c(Cl)n1 [Example 170, 8-fluoro-7-((4-(2-chloro-6-(methylcarbamoyl)pyridin-3-yl)piperazin-1-yl)methyl)-3-methylpyrazolo[1,5-a]quinoxalin-4(5H)-one]
14.4	CNC(=O)c1ccc(N2CCN(Cc3ccc4c([nH]c(=O)c5c(C)cnn54)c3C)CC2)c(F)n1 [Example 171, 7-((4-(2-fluoro-6-(methylcarbamoyl)pyridin-3-yl)piperazin-1-yl)methyl)-3,6-dimethylpyrazolo[1,5-a]quinoxalin-4(5H)-one]
42.5	CNC(=O)c1ccc(N2CCN(Cc3ccc4c([nH]c(=O)c5c(C)cnn54)c3C)CC2)c(C)n1 [Example 172, 7-((4-(2-methyl-6-(methylcarbamoyl)pyridin-3-yl)piperazin-1-yl)methyl)-3,6-dimethylpyrazolo[1,5-a]quinoxalin-4(5H)-one]
23.2	CNC(=O)c1ccc(N2CCN(Cc3ccc4c([nH]c(=O)c5c(C)cnn54)c3C)CC2)c(Cl)n1 [Example 173, 7-((4-(2-chloro-6-(methylcarbamoyl)pyridin-3-yl)piperazin-1-yl)methyl)-3,6-dimethylpyrazolo[1,5-a]quinoxalin-4(5H)-one]
47	CNC(=O)c1ccc(N2CCN(Cc3ccc4c([nH]c(=O)c5c(C)cnn54)c3Cl)CC2)c(F)n1 [Example 174, 6-chloro-7-((4-(2-fluoro-6-(methylcarbamoyl)pyridin-3-yl)piperazin-1-yl)methyl)-3-methylpyrazolo[1,5-a]quinoxalin-4(5H)-one]
> 100	CNC(=O)c1ccc(N2CCN(Cc3ccc4c([nH]c(=O)c5c(C)cnn54)c3Cl)CC2)c(C)n1 [Example 175, 6-chloro-7-((4-(2-methyl-6-(methylcarbamoyl)pyridin-3-yl)piperazin-1-yl)methyl)-3-methylpyrazolo[1,5-a]quinoxalin-4(5H)-one]
> 100	CNC(=O)c1ccc(N2CCN(Cc3ccc4c([nH]c(=O)c5c(C)cnn54)c3Cl)CC2)c(Cl)n1 [Example 176, 6-chloro-7-((4-(2-chloro-6-(methylcarbamoyl)pyridin-3-yl)piperazin-1-yl)methyl)-3-methylpyrazolo[1,5-a]quinoxalin-4(5H)-one]
39.7	CNC(=O)c1ccc(N2CCN(Cc3ccc4c([nH]c(=O)c5c(F)cnn54)c3Cl)CC2)c(C)n1 [Example 193, 3-fluoro-7-((4-(2-methyl-6-(methylcarbamoyl)pyridin-3-yl)piperazin-1-yl)methyl)-6-chloropyrazolo[1,5-a]quinoxalin-4(5H)-one]

Same assay, conditions: proliferation of MDA-MB-436 cells, 7 days

IC50 [nM]	SMILES
7.87	CNC(=O)c1ccc(N2CCN(Cc3ccc4c([nH]c(=O)n5nccc45)c3F)CC2)c(C)n1 [Example 119, 8-((4-(2-methyl-6-(methylcarbamoyl)pyridin-3-yl)piperazin-1-yl)methyl)-7-fluoropyrazolo[1,5-c]quinazolin-5(6H)-one]
5.27	CNC(=O)c1ccc(N2CCN(Cc3ccc4c([nH]c(=O)c5c(F)cnn54)c3F)CC2)c(F)n1 [Example 188, 7-((4-(2-fluoro-6-(methylcarbamoyl)pyridin-3-yl)piperazin-1-yl)methyl)-3,6-difluoropyrazolo[1,5-a]quinoxalin-4(5H)-one]
